Patent publication US11396503B2, “Sulfonyl substituted bicyclic compound which acts as ROR inhibitor” (CHIA TAI TIANQING PHARMACEUTICAL GROUP CO., LTD, priority 2017, dated 2022)

Molecular target: T1, hRORγt (Homo sapiens, UniProt P51449)
T1 construct: expressed in transfected cells; host or cells: CHO-S (Chinese hamster ovary cells, Invitrogen R80007), transiently transfected with pM-hRORγt and pG5-luc
T1 sequence (P51449 1-497 isoform P51449-2): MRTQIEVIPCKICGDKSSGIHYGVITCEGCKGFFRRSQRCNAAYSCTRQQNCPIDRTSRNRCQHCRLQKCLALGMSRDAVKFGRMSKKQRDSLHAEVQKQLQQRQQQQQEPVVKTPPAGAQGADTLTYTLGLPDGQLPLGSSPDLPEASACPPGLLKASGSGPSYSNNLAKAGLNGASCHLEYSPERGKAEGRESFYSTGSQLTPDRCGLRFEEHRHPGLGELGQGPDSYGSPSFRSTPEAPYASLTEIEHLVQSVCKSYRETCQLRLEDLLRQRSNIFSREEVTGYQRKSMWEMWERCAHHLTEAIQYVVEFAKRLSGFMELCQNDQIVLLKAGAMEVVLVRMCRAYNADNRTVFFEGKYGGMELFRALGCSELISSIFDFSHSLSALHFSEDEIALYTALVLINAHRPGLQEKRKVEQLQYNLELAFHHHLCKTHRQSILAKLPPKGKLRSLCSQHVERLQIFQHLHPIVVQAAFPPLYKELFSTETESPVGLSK
Assay: Luciferase assay (reporter gene, recombinant plasmid hRORγt)
Format: cell-based
Details: CHO-S cells transfected with pM-hRORγt and pG5-luc; overnight culture with compound; ONE-Glo luciferase readout; read-out: RORgt EC50
From the text: This assay method used luciferase as a reporter gene to detect the expression of cells transfected with a gene recombinant plasmid at gene transcription level, wherein the recombinant plasmid was constructed by the promoter of a target gene and a luciferase gene. The experiment was primarily related to the transfection of the recombinant plasmid hRORγt (“RORgt”).
I. Reagents and Materials:
1. Cells: Chinese hamster ovary cells (CHO—S, Invitrogen, Cat #R80007), suspension-cultured in CD-CHO culture medium containing 8 mM L-glutamine and 1×HT.
a) Luciferase reporter gene plasmid pG5-luc: reporter plasmid (Promega).
b) Target gene plasmid pM-hRORγt: human RORgamma.
4. Transfection reagent: TransIT-CHO transfection kit (Minis Bio Co.) containing Trans-It reagent and Mojo reagent (Minis, MIR2170).
7. Luciferase kit: (Promega ONE-Glo, 100 ml, Catalog #E6120): containing luciferase substrate (Coenzyme A, ATP and luciferin) and a reaction buffer.
II. Specific Experimental Steps
1. Cell seeding: 18 to 24 h before transfection, a 125 mL shake flask was charged with CHO—S cells having a concentration of 0.5×10^6 cells/mL to 0.6×10^6 cells/mL, and CD-CHO culture medium (the culture medium only contained L-glutamine and an HT supplement) was added thereto to a final volume of 18 mL. The shake flask was placed on a shaker, and the cells were passaged overnight under a condition of 120 rpm, 37° C. and 8% CO2.
2. Cell transfection: At this time, the cell concentration of the above-mentioned solution should be 1.2×10^6 cells/mL to 1.5×10^6 cells/mL. CD-CHO culture medium (containing L-glutamine and an HT supplement) was used for dilution until the cell concentration reached 1×10^6 cells/mL.
B. Preparation of transfection reagent (TransIT-CHO: Mojo: DNA complex), which was formulated immediately before transfection.
1. Trans-IT reagent was warmed to room temperature in advance and shaken to be uniformly mixed before use.
2. Preparation for DNA transfection: the following reagents were mixed in a 1.5 mL sterile centrifuge tube:
27 μg of luciferase reporter gene plasmid pG5-luc: 27 μL, 1 mg/mL solution,
0.75 μg of the expression plasmid of the target gene (pM-hRORγt, 7.5 μL, 0.1 mg/mL solution).
3. The following reagents were charged into a 15 mL sterile centrifuge tube:
83 μL of TransIT-CHO reagent
the DNA complex prepared in step 2
4. The mixture was mixed well and placed at room temperature for 5 min.
5. 13.9 μL of Mojo reagent was charged into a sterile centrifuge tube, mixed slightly, and placed at room temperature for 20 min to form a transfection complex.
1. A 125 mL shake flask was charged with the transfection complex prepared in step B dropwise while being shaken slowly.
2. The cells were cultured for 4 h in a shaker under a condition of 37° C. and 8% carbon dioxide.
3. After 4 h, the cells were transferred to a 50 mL sterile centrifuge tube, centrifuged at 1200 rpm for 4 min, and the supernatant was aspirated.
4. The cells were re-suspended in 6 mL of a freezing medium (CD-CHO, L-glutamine, HT supplement, and 10% DMSO), and the cell density should be 3×10^6 cells/ml at this time.
5. The mixture was dispensed into 12 tubes with 0.5 mL in each tube. The tubes were placed in a refrigerator at −80° C. to be slowly frozen overnight, and then were transferred into liquid nitrogen for long-term storage.
D. Luciferase activity assay (96-well flat plate)
1. The cells were thawed at 37° C.
2. The cells (1.5×10^6 cells/0.5 mL) were diluted with 2 mL of freshly formulated culture medium (CD-CHO, L-glutamine and an HT supplement) to a volume of 2.5 mL, and then were transferred to a 15 mL sterile centrifuge tube.
3. Cell counting: If the cells were completely viable, a concentration of 6×10^5 cells/mL should be achieved. […] If necessary, the cells were diluted with culture medium.
4. Cell seeding: 100 μl cells (4×10^4 cells) were added to each well.

Compound: CCc1ccc2c(c1)CCC(CC)N2S(=O)(=O)c1ccc(C(O)CN2CCOCC2)c(CO)c1 (centres unmarked)
- EC50: 595000 pM

Compound: CC[C@H]1CCc2cc(C(C)C)ccc2N1S(=O)(=O)c1ccc(OCC2CCOCC2)c(CO)c1
- EC50: 6800 pM

Compound: CC1CCc2cc(C(F)(F)F)ccc2N1S(=O)(=O)c1ccc(OCC2CCOCC2)c(CO)c1 (centres unmarked)
- EC50: 15000 pM

Compound: CCC1CCc2cc(CC(F)(F)F)ccc2N1S(=O)(=O)c1ccc(OCC2CCOCC2)c(CO)c1 (centres unmarked)
- EC50: 23000 pM

Compound: CCc1ccc2c(c1)CCC(CC)N2S(=O)(=O)c1ccc(C(O)CC2CCOCC2)c(CO)c1 (centres unmarked)
- EC50: 201000 pM

Compound: CCC1CCc2cc(C3CCC3)ccc2N1S(=O)(=O)c1ccc(OCC2CCOCC2)c(CO)c1 (centres unmarked)
- EC50: 5500 pM

Compound: CCc1ccc2c(c1)CCC(CC)N2S(=O)(=O)c1ccc(OCC2CCOCC2)c(S(N)(=O)=O)c1 (centres unmarked)
- EC50: 576000 pM

Compound: CCC1CCc2cc(C(C)(F)F)ccc2N1S(=O)(=O)c1ccc(OCC2CCOCC2)c(CO)c1 (centres unmarked)
- EC50: 15600 pM

Compound: CCc1ccc2c(c1)CC[C@@H](C)N2S(=O)(=O)c1ccc(OCC2CCOCC2)c(CO)c1
- EC50: 218000 pM

Compound: CCc1ccc2c(c1)CC(C)N2S(=O)(=O)c1ccc(OCC2CCOCC2)c(CO)c1 (centres unmarked)
- EC50: 1.61e+06 pM

Compound: CCc1ccc2c(c1)CCC(CC)N2S(=O)(=O)c1ccc(OCC2CCS(=O)(=O)CC2)c(CO)c1 (centres unmarked)
- EC50: 146000 pM

Compound: CC[C@@H]1CCc2cc(C(C)(F)F)ccc2N1S(=O)(=O)c1ccc(OCC2CCOCC2)c(CO)c1
- EC50: 10000 pM

Compound: CCc1ccc2c(c1)CCC(C)N2S(=O)(=O)c1ccc(OCC2CCOCC2)c(CO)c1 (centres unmarked)
- EC50: 23600 pM

Compound: CCc1ccc2c(c1)N(S(=O)(=O)c1ccc(OCC3CCOCC3)c(CO)c1)[C@@H](C)CC2
- EC50: 223000 pM

Compound: [2H]C([2H])(O)c1cc(S(=O)(=O)N2c3ccc(C(C)C)cc3CCC2CC)ccc1OCC1CCOCC1 (centres unmarked)
- EC50: 11500 pM

Compound: CCCc1ccc2c(c1)CCC(C)N2S(=O)(=O)c1ccc(OCC2CCOCC2)c(CO)c1 (centres unmarked)
- EC50: 17900 pM

Compound: CCc1ccc2c(c1)CCC(CC)N2S(=O)(=O)c1ccc(OCC2CCOCC2)c(CO)c1 (centres unmarked)
- EC50: 11000 pM

Compound: CC[C@H]1CCc2cc(C(F)(F)F)ccc2N1S(=O)(=O)c1ccc(OCC2CCOCC2)c(CO)c1
- EC50: 71000 pM

Compound: CCC1CCc2cc(C(C)C)ccc2N1S(=O)(=O)c1ccc(OCC2CCOCC2)c(CO)c1 (centres unmarked)
- EC50: 3500 pM

Compound: CCc1ccc2c(c1)CC[C@@H](CC)N2S(=O)(=O)c1ccc(OCC2CCOCC2)c(CO)c1
- EC50: 4200 pM

Compound: CCc1ccc2c(c1)CC[C@H](C)N2S(=O)(=O)c1ccc(OCC2CCOCC2)c(CO)c1
- EC50: 25000 pM

Compound: C[C@H]1CCc2ccc(C(F)(F)F)cc2N1S(=O)(=O)c1ccc(OCC2CCOCC2)c(CO)c1
- EC50: 330000 pM

Compound: CCc1ccc2c(c1)CCCN2S(=O)(=O)c1ccc(OCC2CCOCC2)c(CO)c1
- EC50: 858000 pM

Compound: CCc1ccc2c(c1)CCC(CC)N2S(=O)(=O)c1ccc(OCC2CCOCC2)c(S(C)(=O)=O)c1 (centres unmarked)
- EC50: 1.86e+06 pM

Compound: CCC1CCc2cc(C(C)(C)O)ccc2N1S(=O)(=O)c1ccc(OCC2CCOCC2)c(CO)c1 (centres unmarked)
- EC50: 1.4e+06 pM

Compound: CCc1cc2c(cc1F)N(S(=O)(=O)c1ccc(OCC3CCOCC3)c(CO)c1)[C@@H](C)CC2
- EC50: 96500 pM

Compound: C=Cc1ccc2c(c1)CCC(CC)N2S(=O)(=O)c1ccc(OCC2CCOCC2)c(CO)c1 (centres unmarked)
- EC50: 35500 pM

Compound: CCc1ccc2c(c1)C[C@@H](O)[C@H](C)N2S(=O)(=O)c1ccc(OCC2CCOCC2)c(CO)c1
- EC50: 803000 pM

Compound: C=C(C)c1ccc2c(c1)CCC(CC)N2S(=O)(=O)c1ccc(OCC2CCOCC2)c(CO)c1 (centres unmarked)
- EC50: 12000 pM
